Patent US20250325677A1, “STAT6 DEGRADERS” (Gilead Sciences, Inc., priority 2024, published 2025)

Target: STAT6 (Homo sapiens (Human), UniProt P42226)
Test: STAT6 degrader assay (HiBiT, HeLa LgBiT clone 4.14)
Type: cell-based
Settings: HeLa LgBiT clone 4.14, 4-24 h; for DC50: geometric mean, given for compounds with >80% Emax, read-out: STAT6 degradation DC50; for Emax: read-out: STAT6 degradation Emax (%)
Description: This was a HiBit based assay. A HeLa cell line stably transfected with a small protein, LgBit (Large Bit) was obtained from Promega. These cells express endogenous STAT6. A small 11 amino acid gene sequence (HiBiT) was inserted in the STAT6 gene using CRISPR technology. Once STAT6 protein is expressed in the cells, the HiBiT sequence will bind the LgBit in the cells resulting in a functional NanoBiT protein, giving a luminescent tag to STAT6, see FIG. 2.
Single cell clones were prepared and the clone 4.14 was selected for the assay based on that clone showing high luminescence, high STAT6 phosphorylation upon stimulation with IL-4, and inhibition of luminescence when cells were treated with STAT6 siRNA.
HeLa LgBiT clone 4.14 cells were suspended in DMEM with 10% FCS, 1% Pen/Strep, Na-pyrovate and Hygromycin B, at a concentration of 1.25*105 cells pr mL. 5000 cells were added pr well of a 384 well plate and 20 nL of compound was added by Echo® liquid handler. NN6394A (terfenadine, a toxic compound) was added to control wells at 50 μM concentration to establish the assay window. In these wells the cells are dead which equals 100% degradation of STAT6.
After 4-24 h of incubation at 37° C. under 5% CO2/95% air, 5 μL substrate (Nano-GLO®) was added to the wells and the plates were centrifuged and incubated for 0.5 h.
The luminescence in the wells as a measure of non-degraded STAT6 was measured in a plate reader (BMG Pherastar FSX). The measured DC50 (in nM) was determined.
The dose-response curves Examples 3p1, 3e50, 3e17, and 3e51 are shown below (where percent degradation is plotted vs. test compound concentration in M on a log-scale).

STAT6, sequence (P42226 whole entry): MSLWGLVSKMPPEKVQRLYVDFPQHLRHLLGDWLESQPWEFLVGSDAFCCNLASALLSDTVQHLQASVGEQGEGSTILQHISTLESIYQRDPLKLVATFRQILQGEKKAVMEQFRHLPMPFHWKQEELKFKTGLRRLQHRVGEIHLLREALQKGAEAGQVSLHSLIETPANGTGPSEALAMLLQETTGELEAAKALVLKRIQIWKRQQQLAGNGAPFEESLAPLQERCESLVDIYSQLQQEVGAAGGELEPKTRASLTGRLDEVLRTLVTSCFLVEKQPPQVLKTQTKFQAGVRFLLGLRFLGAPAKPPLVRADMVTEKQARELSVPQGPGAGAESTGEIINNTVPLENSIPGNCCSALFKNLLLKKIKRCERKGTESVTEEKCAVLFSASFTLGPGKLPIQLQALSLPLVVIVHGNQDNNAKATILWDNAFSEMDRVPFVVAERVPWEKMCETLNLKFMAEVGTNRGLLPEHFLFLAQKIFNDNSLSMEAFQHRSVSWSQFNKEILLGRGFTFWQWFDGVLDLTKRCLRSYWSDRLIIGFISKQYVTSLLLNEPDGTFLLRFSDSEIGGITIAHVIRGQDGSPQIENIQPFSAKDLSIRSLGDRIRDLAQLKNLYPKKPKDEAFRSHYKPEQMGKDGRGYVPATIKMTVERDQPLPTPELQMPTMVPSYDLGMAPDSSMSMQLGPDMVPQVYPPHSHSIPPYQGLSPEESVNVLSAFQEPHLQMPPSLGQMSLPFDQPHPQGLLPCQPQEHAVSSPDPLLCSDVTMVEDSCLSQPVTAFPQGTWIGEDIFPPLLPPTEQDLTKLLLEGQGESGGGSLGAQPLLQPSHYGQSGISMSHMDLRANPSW

Row | Compound | DC50 | Emax | other results
1 | CNc1ccc(-c2ccnc3c2cc([C@H](C)N2CC=C(c4c(C)cc(C(=O)N5CCC(CC6CCN(c7ccc8c(c7)C7(CC7)C(=O)N8C7CCC(=O)NC7=O)CC6)CC5)cc4F)CC2)n3C)cn1 (stereo partly drawn) [Example 3h8, 3-(5′-(4-((1-(3-fluoro-5-methyl-4-(1-((S)-1-(1-methyl-4-(6-(methylamino)pyridin-3-yl)-1H-pyrrolo[2,3-b]pyridin-2-yl)ethyl)-1,2,3,6-tetrahydropyridin-4-yl)benzoyl)piperidin-4-yl)methyl)piperidin-1-yl)-2′-oxospiro[cyclopropane-1,3′-indolin]-1′-yl)piperidine-2,6-dione] | 28.4 nM |  | 
2 | CNc1ccc(-c2ccnc3c2cc([C@H](C)N2CCC(c4ccc(C(=O)N5CCC(CN6CCN(Cc7ccc8c(c7)n(C)c(=O)n8[C@H]7CCC(=O)NC7=O)C[C@@H]6C)CC5)cc4)CC2)n3C)cn1 [Example 3h4, (S)-3-(3-methyl-5-(((S)-3-methyl-4-((1-(4-(1-((S)-1-(1-methyl-4-(6-(methylamino)pyridin-3-yl)-1H-pyrrolo[2,3-b]pyridin-2-yl)ethyl)piperidin-4-yl)benzoyl)piperidin-4-yl)methyl)piperazin-1-yl)methyl)-2-oxo-2,3-dihydro-1H-benzo[d]imidazol-1-yl)piperidine-2,6-dione] | 1 nM |  | 
3 | 3-(4-((4-((1-(4-(1-((4-(1H-indazol-5-yl)-1-methyl-1H-pyrrolo[2,3-b]pyridin-2-yl)methyl)-piperidin-4-yl)benzoyl)piperidin-4-yl)methyl)piperidin-1-yl)methyl)-3-(2-methoxyethyl)-2-oxo-2,3-dihydro-1H-benzo[d]imidazol-1-yl)piperidine-2,6-dione [Example 3i2] |  |  | STAT6 degradation Emax (%): 40-50%
4 | Cn1c(CN2CCC(c3ccc(C(=O)N4CCN(CC5CCN(Cc6ccc7c(c6)n(C)c(=O)n7C6CCC(=O)NC6=O)CC5)CC4)cc3)CC2)cc2c(-c3ccc4[nH]ncc4c3)ccnc21 (stereo not drawn) [Example 3f1, 3-(5-((4-((4-(4-(1-((4-(1H-indazol-5-yl)-1-methyl-1H-pyrrolo[2,3-b]pyridin-2-yl)methyl)-piperidin-4-yl)benzoyl)piperazin-1-yl)methyl)piperidin-1-yl)methyl)-3-methyl-2-oxo-2,3-dihydro-1H-benzo[d]imidazol-1-yl)piperidine-2,6-dione] |  | 40 to 50% | 
5 | CNc1ccc(-c2ccnc3c2cc([C@H](C)N2CCC(c4ccc(C(=O)N5CCC(CN6CCN(Cc7ccc8c(c7)n(C)c(=O)n8C7CCC(=O)NC7=O)C[C@@H]6C)CC5)cc4)CC2)n3C)cn1 (stereo partly drawn) [Example 3h2, 3-(3-methyl-5-(((S)-3-methyl-4-((1-(4-(1-((S)-1-(1-methyl-4-(6-(methylamino)pyridin-3-yl)-1H-pyrrolo[2,3-b]pyridin-2-yl)ethyl)piperidin-4-yl)benzoyl)piperidin-4-yl)methyl)piperazin-1-yl)methyl)-2-oxo-2,3-dihydro-1H-benzo[d]imidazol-1-yl)piperidine-2,6-dione] | 0.8 nM |  | 
6 | Cn1c(CN2CCC(c3ccc(C(=O)N4CCC(OCC#Cc5cccc6c5n(C)c(=O)n6C5CCC(=O)NC5=O)CC4)cc3)CC2)cc2c(-c3ccc4[nH]ncc4c3)ccnc21 (stereo not drawn) [Example 3a1, 3-(4-(3-((1-(4-(1-((4-(1H-indazol-5-yl)-1-methyl-1H-pyrrolo[2,3-b]pyridin-2-yl)methyl)piperidin-4-yl)benzoyl)piperidin-4-yl)oxy)prop-1-yn-1-yl)-3-methyl-2-oxo-2,3-dihydro-1H-benzo[d]imidazol-1-yl)piperidine-2,6-dione] | 4.9 nM |  | 
7 | C[C@@H](c1cc2c(-c3ccc4[nH]ncc4c3)ccnc2n1C)N1CCC(c2ccc(C(=O)N3CCC(CN4CCN(Cc5ccc6c(c5)n(C5CC5)c(=O)n6C5CCC(=O)NC5=O)CC4)CC3)cc2)CC1 (stereo partly drawn) [Example 3e11, 3-(5-((4-((1-(4-(1-((S)-1-(4-(1H-indazol-5-yl)-1-methyl-1H-pyrrolo[2,3-b]pyridin-2-yl)ethyl)piperidin-4-yl)benzoyl)piperidin-4-yl)methyl)piperazin-1-yl)methyl)-3-cyclo-propyl-2-oxo-2,3-dihydro-1H-benzo[d]imidazol-1-yl)piperidine-2,6-dione] | 0.9 nM |  | 
8 | CNc1ccc(-c2ccnc3c2cc([C@H](C)N2CCC(c4ccc(C(=O)N5CCC(CN6CCN(Cc7cc8c(cc7F)n([C@@H]7CCC(=O)NC7=O)c(=O)n8C)C[C@@H]6C)CC5)cc4)CC2)n3C)cn1 [Example 3h22, (R)-3-(6-fluoro-3-methyl-5-(((S)-3-methyl-4-((1-(4-(1-((S)-1-(1-methyl-4-(6-(methylamino)pyridin-3-yl)-1H-pyrrolo[2,3-b]pyridin-2-yl)ethyl)piperidin-4-yl)benzoyl)piperidin-4-yl)methyl)piperazin-1-yl)methyl)-2-oxo-2,3-dihydro-1H-benzo[d]imidazol-1-yl)piperidine-2,6-dione] | 0.9 nM |  | 
9 | Cn1c(CN2CCC(c3ccc(C(=O)N4CCC(CN5CCC(c6cccc7c6n(C)c(=O)n7C6CCC(=O)NC6=O)CC5)CC4)cc3)CC2)cc2c(-c3ccc4[nH]ncc4c3)ccnc21 (stereo not drawn) [Example 3t1, 3-(4-(1-((1-(4-(1-((4-(1H-indazol-5-yl)-1-methyl-1H-pyrrolo[2,3-b]pyridin-2-yl)methyl)piperidin-4-yl)benzoyl)piperidin-4-yl)methyl)piperidin-4-yl)-3-methyl-2-oxo-2,3-dihydro-1H-benzo[d]imidazol-1-yl)piperidine-2,6-dione] |  | < 20% | 
10 | Cn1c(CN2CCC(c3ccc(C(=O)N4CCN(CC5CCN(Cc6cccc7c6n(C)c(=O)n7C6CCC(=O)NC6=O)CC5)CC4)cc3)CC2)cc2c(-c3ccc4[nH]ncc4c3)ccnc21 (stereo not drawn) [Example 3k1, 3-(4-((4-((4-(4-(1-((4-(1H-indazol-5-yl)-1-methyl-1H-pyrrolo[2,3-b]pyridin-2-yl)methyl)-piperidin-4-yl)benzoyl)piperazin-1-yl)methyl)piperidin-1-yl)methyl)-3-methyl-2-oxo-2,3-dihydro-1H-benzo[d]imidazol-1-yl)piperidine-2,6-dione] |  | 20 to 30% | 
11 | Cn1c(CN2CCC(c3ccc(C(=O)N4CCC(CCn5cc(-c6ccc7c(c6)n(C)c(=O)n7C6CCC(=O)NC6=O)cn5)CC4)cc3)CC2)cc2c(-c3ccc4[nH]ncc4c3)ccnc21 (stereo not drawn) [Example 3l4, 3-(5-(1-(2-(1-(4-(1-((4-(1H-indazol-5-yl)-1-methyl-1H-pyrrolo[2,3-b]pyridin-2-yl)methyl)-piperidin-4-yl)benzoyl)piperidin-4-yl)ethyl)-1H-pyrazol-4-yl)-3-methyl-2-oxo-2,3-dihydro-1H-benzo[d]imidazol-1-yl)piperidine-2,6-dione] | 2.6 nM |  | 
12 | C[C@@H](c1cc2c(-c3ccc(N)nc3)ccnc2n1C)N1CCC(c2ccc(C(=O)N3CCC(CN4CCN(Cc5ccc6c(c5)n(C5CC5)c(=O)n6C5CCC(=O)NC5=O)CC4)CC3)cc2)CC1 (stereo partly drawn) [Example 3e10, 3-(5-((4-((1-(4-(1-((S)-1-(4-(6-aminopyridin-3-yl)-1-methyl-1H-pyrrolo[2,3-b]pyridin-2-yl)ethyl)piperidin-4-yl)benzoyl)piperidin-4-yl)methyl)piperazin-1-yl)methyl)-3-cyclopropyl-2-oxo-2,3-dihydro-1H-benzo[d]imidazol-1-yl)piperidine-2,6-dione] |  | < 20% | 
13 | Cn1c(CN2CCC(c3ccc(C(=O)N4CCC(Cn5cc(-c6cccc7c6n(C)c(=O)n7C6CCC(=O)NC6=O)cn5)CC4)cc3)CC2)cc2c(-c3ccc4[nH]ncc4c3)ccnc21 (stereo not drawn) [Example 3l1, 3-(4-(1-((1-(4-(1-((4-(1H-indazol-5-yl)-1-methyl-1H-pyrrolo[2,3-b]pyridin-2-yl)methyl)piperidin-4-yl)benzoyl)piperidin-4-yl)methyl)-1H-pyrazol-4-yl)-3-methyl-2-oxo-2,3-dihydro-1H-benzo[d]imidazol-1-yl)piperidine-2,6-dione] |  | 20 to 30% | 
14 | COCc1nc2cc(-c3ccnc4c3cc([C@H](C)N3CCC(c5ccc(C(=O)N6CCC(CN7CCN(Cc8ccc9c(c8)n(C)c(=O)n9C8CCC(=O)NC8=O)CC7)CC6)cc5)CC3)n4C)ccc2[nH]1 (stereo partly drawn) [Example 3e66, 3-(5-((4-((1-(4-(1-((S)-1-(4-(2-(methoxymethyl)-1H-benzo[d]imidazol-5-yl)-1-methyl-1H-pyrrolo[2,3-b]pyridin-2-yl)ethyl)piperidin-4-yl)benzoyl)piperidin-4-yl)methyl)piperazin-1-yl)methyl)-3-methyl-2-oxo-2,3-dihydro-1H-benzo[d]imidazol-1-yl)piperidine-2,6-dione] | 0.5 nM |  | 
15 | Cn1c(CN2CCC(c3ccc(C(=O)N4CCC(CN5CCN(Cc6ccc7c(c6)oc(=O)n7C6CCC(=O)NC6=O)CC5)CC4)cc3)CC2)cc2c(-c3ccc(N)nc3)ccnc21 (stereo not drawn) [Example 3n1, 3-(6-((4-((1-(4-(1-((4-(6-aminopyridin-3-yl)-1-methyl-1H-pyrrolo[2,3-b]pyridin-2-yl)methyl)piperidin-4-yl)benzoyl)piperidin-4-yl)methyl)piperazin-1-yl)methyl)-2-oxobenzo[d]oxazol-3 (2H)-yl)piperidine-2,6-dione] |  | 60 to 70% | 
